Results: ChEMBL document CHEMBL1201862, “PubChem BioAssay data set” (2004)
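Following 48 hours of exposure in 96-well plates, responses at five concentrations were used to interpolate endpoints linearly. GI50 = concentration required for 50% inhibition of growth.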 Activity calls are given as the source filed them. Rule as the data show it: active = GI50 up to about 1.1 µM and inactive = higher.

Assays:
Assay in all cases: growth of human tumour cells (NCI), 48 h
[1] = system: SK-MEL-5
[2] = system: Malme-3M
[3] = system: SN12C
[4] = system: OVCAR-3
[5] = system: K562
[6] = system: NCI-H460
[7] = system: HOP-62
[8] = system: NCI-H23
[9] = system: HCT-15
[10] = system: EKVX
[11] = system: COLO 205
[12] = system: SNB-19
[13] = system: RXF 393
[14] = system: SK-MEL-28
[15] = system: HCT-116
[16] = system: TK-10
[17] = system: PC-3
[18] = system: MDA-MB-435
[19] = system: BT-549

CC(=O)C1C(=O)C(=O)N(c2ccccc2C(C)C)C1=O (stereo not drawn)
GI50 [1]: > 100 µM (inactive) | GI50 [2]: > 100 µM (inactive) | GI50 [3]: > 100 µM (inactive) | GI50 [4]: > 100 µM (inactive) | GI50 [5]: > 100 µM (inactive) | GI50 [6]: > 100 µM (inactive) | GI50 [7]: > 100 µM (inactive) | GI50 [8]: > 100 µM (inactive) | GI50 [9]: > 100 µM | GI50 [10]: > 100 µM (inactive) | GI50 [11]: > 100 µM (inactive) | GI50 [12]: > 100 µM (inactive) | GI50 [13]: > 100 µM (inactive) | GI50 [14]: > 100 µM (inactive) | GI50 [15]: > 100 µM (inactive) | GI50 [16]: > 100 µM (inactive)

O=C1CCC2(c3ccc(F)cc3)Nc3ncncc3N12 (stereo not drawn)
GI50 [2]: > 10 µM (inactive) | GI50 [3]: > 10 µM (inactive) | GI50 [4]: > 10 µM (inactive) | GI50 [5]: > 10 µM (inactive) | GI50 [6]: > 10 µM (inactive) | GI50 [8]: > 10 µM (inactive) | GI50 [9]: > 10 µM | GI50 [17]: > 10 µM (inactive) | GI50 [10]: 9.93 µM (inactive) | GI50 [12]: > 10 µM (inactive) | GI50 [18]: > 10 µM (inactive) | GI50 [19]: > 10 µM (inactive) | GI50 [16]: > 10 µM (inactive)

CN(C)c1ccc(/N=C2/NC(=N\c3ccccc3)/C(=N/c3ccccc3)S2)cc1
GI50 [1]: > 100 µM (inactive) | GI50 [2]: > 100 µM (inactive) | GI50 [3]: > 100 µM (inactive) | GI50 [4]: > 100 µM (inactive) | GI50 [6]: > 100 µM (inactive) | GI50 [7]: 41.6 µM (inactive) | GI50 [8]: > 100 µM (inactive) | GI50 [9]: > 100 µM | GI50 [17]: > 100 µM (inactive) | GI50 [10]: > 100 µM (inactive) | GI50 [11]: > 100 µM (inactive) | GI50 [12]: 87.3 µM (inactive) | GI50 [13]: 43.1 µM (inactive) | GI50 [18]: > 100 µM (inactive) | GI50 [14]: > 100 µM (inactive) | GI50 [15]: 85.3 µM (inactive) | GI50 [16]: 62.4 µM (inactive)

CCc1cc2c(cc1O)CC[C@@H]1[C@@H]2CC[C@]2(C)[C@@H](O)CC[C@@H]12
GI50 [1]: 7.11 µM (inactive) | GI50 [2]: 2.97 µM (inactive) | GI50 [5]: 3.88 µM (inactive) | GI50 [6]: 5.42 µM (inactive) | GI50 [7]: 6.14 µM (inactive) | GI50 [8]: 7.14 µM (inactive) | GI50 [9]: 4.83 µM | GI50 [17]: 12.2 µM (inactive) | GI50 [10]: 9.71 µM (inactive) | GI50 [11]: 17.5 µM (inactive) | GI50 [12]: 6.34 µM (inactive) | GI50 [13]: 3.76 µM (inactive) | GI50 [18]: 1.73 µM (inactive) | GI50 [14]: 5.14 µM (inactive) | GI50 [16]: 21.9 µM (inactive)

CCNC(=O)NNc1ncnc2c1c(-c1ccc(Cl)cc1)cn2-c1ccc(C)cc1
GI50 [1]: 14.7 µM (inactive) | GI50 [2]: 18.8 µM (inactive) | GI50 [3]: 16.5 µM (inactive) | GI50 [4]: 16.7 µM (inactive) | GI50 [5]: 18.6 µM (inactive) | GI50 [6]: 22.4 µM (inactive) | GI50 [7]: 20.4 µM (inactive) | GI50 [8]: 24.6 µM (inactive) | GI50 [9]: 20.5 µM | GI50 [17]: 17.7 µM (inactive) | GI50 [10]: 20.2 µM (inactive) | GI50 [11]: 15.9 µM (inactive) | GI50 [12]: 18.2 µM (inactive) | GI50 [13]: 18.3 µM (inactive) | GI50 [18]: 17 µM (inactive) | GI50 [14]: 18.9 µM (inactive) | GI50 [15]: 14.9 µM (inactive) | GI50 [16]: 34.2 µM (inactive)

CSC(SC)(C(=O)O)c1cc(-c2c(Cl)cccc2Cl)no1
GI50 [1]: 33.7 µM (inactive) | GI50 [2]: 60.8 µM (inactive) | GI50 [3]: 62.1 µM (inactive) | GI50 [4]: 55.6 µM (inactive) | GI50 [5]: 50.8 µM (inactive) | GI50 [6]: 34.9 µM (inactive) | GI50 [7]: 87.5 µM (inactive) | GI50 [8]: 19.2 µM (inactive) | GI50 [9]: 15.5 µM | GI50 [17]: 34 µM (inactive) | GI50 [10]: 54.6 µM (inactive) | GI50 [11]: 34.4 µM (inactive) | GI50 [12]: > 100 µM (inactive) | GI50 [18]: 63.4 µM (inactive) | GI50 [14]: > 100 µM (inactive) | GI50 [19]: 28.8 µM (inactive) | GI50 [15]: 26.9 µM (inactive) | GI50 [16]: > 100 µM (inactive)

CCOC(=O)/C(=C/c1cccc(Cl)c1)N(CC)CC
GI50 [1]: 41.1 µM (inactive) | GI50 [2]: 57.3 µM (inactive) | GI50 [3]: 45.9 µM (inactive) | GI50 [5]: 52.2 µM (inactive) | GI50 [6]: 46.5 µM (inactive) | GI50 [7]: 29.9 µM (inactive) | GI50 [8]: 27.7 µM (inactive) | GI50 [9]: 38.7 µM | GI50 [10]: 55.7 µM (inactive) | GI50 [11]: > 100 µM (inactive) | GI50 [14]: 90.8 µM (inactive) | GI50 [15]: 37.4 µM (inactive) | GI50 [16]: > 100 µM (inactive)

CCCCN1/C(=N/Nc2n[nH]c(=O)c3ccccc23)SCC1c1ccc(Cl)cc1 (stereo not drawn)
GI50 [1]: 3.55 µM (inactive) | GI50 [2]: 22 µM (inactive) | GI50 [3]: 24.6 µM (inactive) | GI50 [4]: 15 µM (inactive) | GI50 [5]: 8.17 µM (inactive) | GI50 [6]: 3.59 µM (inactive) | GI50 [7]: 6.24 µM (inactive) | GI50 [8]: 1.64 µM (inactive) | GI50 [9]: 6.52 µM | GI50 [17]: 14 µM (inactive) | GI50 [10]: 4.27 µM (inactive) | GI50 [11]: 11.8 µM (inactive) | GI50 [12]: 10.6 µM (inactive) | GI50 [13]: 20.1 µM (inactive) | GI50 [18]: 11 µM (inactive) | GI50 [14]: 19.1 µM (inactive) | GI50 [15]: 13.9 µM (inactive) | GI50 [16]: 33.9 µM (inactive)
